# Key:
# [1] = tested on: scopolamine induced dry eye model; assay: Scopolamine induced dry eye model, corneal fluorescein staining (Example 3); format: in vivo, rat; details: single topical 5 μl of 1% (10 mg/mL) on day eight; read day fourteen; score 0 to 4
# Method: (§1) Dry eye was induced using scopolamine (Sigma-Aldrich, St. Louis, Mo.), which was continuously and systemically delivered to the animals via an osmotic pump (2ML4 Alzet®; CedarLane, Burlington, Ontario) filled with scopolamine and implanted subcutaneously in the mid dorsal area between the scapulae. The wound was closed with 2-3 wound clips. After the surgery and again the next day, the animals were subcutaneously injected with Carprofen (0.5 mg/100 g) a non-steroidal anti-inflammatory drug and potent, long-acting analgesic in rodents. Animals were anaesthetized before the surgical pump implantation and before all clinical endpoint testing in an Isofluorane 99.9% USP (Abraxis Bioscience, Richmond Hill, Ontario) chamber. Scopolamine was delivered at 12.5 mg/day and, for technical reasons, the data was evaluated at day 14. […]
# The clinical signs of corneal dryness were evaluated by fluorescein impregnation of the cornea. […] For each animal, the punctate fluorescent-positive area of the ocular surface was recorded in a blinded fashion. […]
# [2] = tested on: scopolamine induced dry eye model; assay: Scopolamine induced dry eye model, Schirmer test (Example 3); format: in vivo, rat; details: single topical instillation of 1% on day eight; measured day thirteen
# Method: as §1, with “chamber.” for “chamber. Scopolamine was delivered at 12.5 mg/day and, for technical reasons, the data was evaluated at day 14.”
# Tear production was measured with Zone-Quick standardized phenol-red threads (FCI Ophthalmics, Marshfield Hills, Mass.) on animals lightly sedated with Isoflurane. […] The length of the stained moistened portion of the thread was measured in millimeters, using the scale provided with the threads to an accuracy of 1 mm. […]
smiles,measurement,setting,value
NCCCC[C@@H]1NC(=O)[C@H](CCC(=O)O)NC(=O)c2cc([N+](=O)[O-])ccc2OCCC(C(=O)NCC(=O)O)NC1=O (some centres unmarked) [Compound D3],"corneal fluorescein staining, mean score",[1],1.1±0.1 score
same,"aqueous tear production, Schirmer test (in words)",[2],no effect on aqueous tear production

# Source: patent US9707267B2, “Beta-turn peptidomimetic cyclic compounds for treating dry eye” (Mimetogen Pharmaceuticals, Inc., priority 2008, dated 2017)
